The target in the assay is T1, MAGL (Homo sapiens, UniProt Q99685).
T1 sequence (Q99685 1-303): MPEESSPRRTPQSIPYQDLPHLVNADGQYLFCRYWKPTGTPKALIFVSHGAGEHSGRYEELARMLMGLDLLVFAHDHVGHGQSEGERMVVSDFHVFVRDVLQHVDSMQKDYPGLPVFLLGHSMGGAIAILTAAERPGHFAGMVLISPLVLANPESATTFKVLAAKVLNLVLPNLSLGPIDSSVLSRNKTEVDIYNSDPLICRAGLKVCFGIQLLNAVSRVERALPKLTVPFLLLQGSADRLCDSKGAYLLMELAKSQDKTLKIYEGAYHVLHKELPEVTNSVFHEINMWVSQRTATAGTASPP
Briefly: MAGL inhibition, 2-AG assay (hydrolysis of 2-arachidonoylglycerol, arachidonic acid by mass spectrometry). The conditions noted are these: 2-AG assay (footnote [b]). It counts as biochemical. In short, it runs like this: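 Hydrolysis of 8 μM 2-arachidonoylglycerol by […] was run for 30 min at RT after a 15 min compound preincubation, in Tris/EDTA/Tween buffer. Test compounds spanned […]. The product was measured by online SPE-MS/MS (transitions 303.1→259.1 and 311.1→267.0), and activity was derived from the arachidonic acid/d8-arachidonic acid signal ratio.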
Broadly, the IC50 is the concentration that inhibits the measured activity by half. A high value points to a need for much substance. Take `O=C1CO[C@H]2CCN(C(=O)N3CCC(C(Oc4ccc(F)cc4Cl)C(F)(F)F)CC3)C[C@H]2N1` (stereo partly drawn) [Example 81, (4aR,8aS)-6-(4-(1-(2-Chloro-4-fluorophenoxy)-2,2,2-trifluoroethyl)piperidine-1-carbonyl)hexahydro-2H-pyrido[4,3-b][1,4]oxazin-3(4H)-one]: half-maximal inhibition (IC50) was put at 3 nM. Compound `CC(c1ccc(C(F)(F)F)cc1)C1CN(C(=O)N2CC[C@@H]3OCC(=O)N[C@@H]3C2)C1` (stereo partly drawn) [Example 83, (4aR,8aS)-6-[3-[1-[4-(Trifluoromethyl)phenyl]ethyl]azetidine-1-carbonyl]-4,4a,5,7,8,8a-hexahydropyrido[4,3-b][1,4]oxazin-3-one] displayed an IC50 of 114 nM. For the compound `O=C1CO[C@H]2CCN(C(=O)N3CC(C(c4ccccc4)c4ccccc4)C3)C[C@H]2N1` [Example 86, (4aR,8aS)-6-(3-Benzhydrylazetidine-1-carbonyl)hexahydro-2H-pyrido[4,3-b][1,4]oxazin-3(4H)-one], the IC50 was found to be 155 nM. As for `CC(OC1CN(C(=O)N2CC[C@@H]3OCC(=O)N[C@@H]3C2)C1)c1ccc(C(F)(F)F)cc1` (stereo partly drawn) [Example 90, (4aR,8aS)-6-[3-[1-[4-(Trifluoromethyl)phenyl]ethoxy]azetidine-1-carbonyl]-4,4a,5,7,8,8a-hexahydropyrido[4,3-b][1,4]oxazin-3-one], the figure is 49 nM; as for `CC(Oc1ccc(C(F)(F)F)cc1F)C1CN(C(=O)N2CC[C@@H]3OCC(=O)N[C@@H]3C2)C1` (stereo partly drawn) [Example 91, (4aR,8aS)-6-(3-(1-(2-Fluoro-4-(trifluoromethyl)phenoxy)ethyl)azetidine-1-carbonyl)hexahydro-2H-pyrido[4,3-b][1,4]oxazin-3(4H)-one], 15 nM; as for `CC(Oc1ccc(C(F)(F)F)cc1)C1CN(C(=O)N2CC[C@@H]3OCC(=O)N[C@@H]3C2)C1` (stereo partly drawn) [Example 92, (4aR,8aS)-6-(3-(1-(4-(Trifluoromethyl)phenoxy)ethyl)azetidine-1-carbonyl)hexahydro-2H-pyrido[4,3-b][1,4]oxazin-3(4H)-one], 20 nM. `CC(OC1CCN(C(=O)N2CC[C@@H]3OCC(=O)N[C@@H]3C2)CC1)c1ccc(C(F)(F)F)cc1` (stereo partly drawn) [Example 93, (4aR,8aS)-6-[4-[1-[4-(Trifluoromethyl)phenyl]ethoxy]piperidine-1-carbonyl]-4,4a,5,7,8,8a-hexahydropyrido [4,3-b][1,4]oxazin-3-one]: the IC50 stood at 73 nM. In the case of `Cc1cc(C2CCN(C(=O)N3CC[C@@H]4OCC(=O)N[C@@H]4C3)CC2)cnc1C(F)(F)F` [Example 101, (4aR,8aS)-6-(4-(5-Methyl-6-(trifluoromethyl)pyridin-3-yl)piperidine-1-carbonyl)hexahydro-2H-pyrido[4,3-b][1,4]oxazin-3(4H)-one] it was 219 nM; in that of `O=C1CO[C@H]2CCN(C(=O)N3CCC(C(c4ccc(F)cc4)c4nc(C(F)(F)F)no4)CC3)C[C@H]2N1` (stereo partly drawn) [Example 102, (4aR,8aS)-6-(4-((4-Fluorophenyl)(3-(trifluoromethyl)-1,2,4-oxadiazol-5-yl)methyl)piperidine-1-carbonyl)hexahydro-2H-pyrido[4,3-b][1,4]oxazin-3(4H)-one], 5 nM. Turning to `O=C1CO[C@H]2CCN(C(=O)N3CCC(c4ccnc5c4CCCC5)CC3)C[C@H]2N1` [Example 107, (4aR,8aS)-6-(4-(5,6,7,8-Tetrahydroquinolin-4-yl)piperidine-1-carbonyl)hexahydro-2H-pyrido[4,3-b][1,4]oxazin-3(4H)-one], the IC50 stood at 576 nM. Against the preceding compound, the IC50 is about 120-fold higher.

`O=C1CO[C@H]2CCN(C(=O)N3CC(c4ccc(Br)cc4)C3)C[C@H]2N1` [Example 110, (4aR,8aS)-6-[3-(4-bromophenyl)azetidine-1-carbonyl]-4,4a,5,7,8,8a-hexahydropyrido[4,3-b][1,4]oxazin-3-one] came in with an IC50 of 29 nM. As for `O=C1CO[C@H]2CCN(C(=O)N3CC(c4ccc(-c5ccc(Cl)cc5)cc4)C3)C[C@H]2N1` [Example 111, (4aR,8aS)-6-(3-(4′-Chloro-[1,1′-biphenyl]-4-yl)azetidine-1-carbonyl)hexahydro-2H-pyrido[4,3-b][1,4]oxazin-3(4H)-one], the IC50 was determined as 0.4 nM. In the case of `O=C1CO[C@H]2CCN(C(=O)N3CC(c4ccc(-c5ccccc5Cl)cc4)C3)C[C@H]2N1` [Example 112, (4aR,8aS)-6-(3-(2′-Chloro-[1,1′-biphenyl]-4-yl)azetidine-1-carbonyl)hexahydro-2H-pyrido[4,3-b][1,4]oxazin-3(4H)-one] it was 0.1 nM; in that of `O=C1CO[C@H]2CCN(C(=O)N3CC(c4ccc(-c5ccc(Cl)cc5Cl)cc4)C3)C[C@H]2N1` [Example 113, (4aR,8aS)-6-(3-(2′,4′-Dichloro-[1,1′-biphenyl]-4-yl)azetidine-1-carbonyl)hexahydro-2H-pyrido[4,3-b][1,4]oxazin-3(4H)-one], 0.04 nM. In the case of `O=C1CO[C@H]2CCN(C(=O)N3CC(c4ccc(OC(F)(F)F)cc4)C3)C[C@H]2N1` [Example 120, (4aR,8aS)-6-[3-[4-(Trifluoromethoxy)phenyl]azetidine-1-carbonyl]-4,4a,5,7,8,8a-hexahydropyrido[4,3-b][1,4]oxazin-3-one] it was 7 nM; in that of `O=C1CO[C@H]2CCN(C(=O)N3CC(c4ccc(-c5ccccc5OC(F)(F)F)cc4)C3)C[C@H]2N1` [Example 121, (4aR,8aS)-6-(3-(2′-(Trifluoromethoxy)-[1,1′-biphenyl]-4-yl)azetidine-1-carbonyl)hexahydro-2H-pyrido[4,3-b][1,4]oxazin-3(4H)-one], 0.03 nM. In the case of `O=C1CO[C@H]2CCN(C(=O)N3CC(F)(c4ccc(Br)cc4)C3)C[C@H]2N1` [Example 122, (4aR,8aS)-6-(3-(4-Bromophenyl)-3-fluoroazetidine-1-carbonyl)hexahydro-2H-pyrido[4,3-b][1,4]oxazin-3(4H)-one] it was 90 nM; in that of `O=C1CO[C@H]2CCN(C(=O)N3CC(O)(c4ccc(Br)cc4)C3)C[C@H]2N1` [Example 123, (4aR,8aS)-6-(3-(4-Bromophenyl)-3-hydroxyazetidine-1-carbonyl)hexahydro-2H-pyrido[4,3-b][1,4]oxazin-3(4H)-one], 226 nM.

Compound `CC1(c2ccc(Br)cc2)CN(C(=O)N2CC[C@@H]3OCC(=O)N[C@@H]3C2)C1` [Example 124, (4aR,8aS)-6-(3-(4-Bromophenyl)-3-methylazetidine-1-carbonyl)hexahydro-2H-pyrido[4,3-b][1,4]oxazin-3(4H)-one] came in with an IC50 of 113 nM. In the case of `O=C1CO[C@H]2CCN(C(=O)N3CC(c4ccc(-c5ccccc5C(F)(F)F)cc4)C3)C[C@H]2N1` [Example 125, (4aR,8aS)-6-(3-(2′-(Trifluoromethyl)-[1,1′-biphenyl]-4-yl)azetidine-1-carbonyl)hexahydro-2H-pyrido[4,3-b][1,4]oxazin-3(4H)-one], the IC50 worked out at 0.04 nM. Against the preceding compound, the IC50 is about 2800-fold lower. In the case of `O=C1CO[C@H]2CCN(C(=O)N3CC(c4ccc(-c5ccc(F)cc5F)cc4)C3)C[C@H]2N1` [Example 126, (4aR,8aS)-6-(3-(2′,4′-Difluoro-[1,1′-biphenyl]-4-yl)azetidine-1-carbonyl)hexahydro-2H-pyrido[4,3-b][1,4]oxazin-3(4H)-one] it was 0.3 nM; in that of `N#Cc1ccccc1-c1ccc(C2CN(C(=O)N3CC[C@@H]4OCC(=O)N[C@@H]4C3)C2)cc1` [Example 127, 4′-(1-((4aR,8aS)-3-Cxooctahydro-2H-pyrido[4,3-b][1,4]oxazine-6-carbonyl)azetidin-3-yl)-[1,1′-biphenyl]-2-carbonitrile], 0.5 nM. In the case of `COC1CN(c2ccc(C3CN(C(=O)N4CC[C@@H]5OCC(=O)N[C@@H]5C4)C3)cc2)C1` [Example 128, (4aR,8aS)-6-(3-(4-(3-Methoxyazetidin-1-yl)phenyl)azetidine-1-carbonyl)hexahydro-2H-pyrido[4,3-b][1,4]oxazin-3(4H)-one] it was 45 nM. Turning to `O=C1CO[C@H]2CCN(C(=O)N3CC(c4ccc(N5CC(C(F)(F)F)C5)cc4)C3)C[C@H]2N1` [Example 129, (4aR,8aS)-6-(3-(4-(3-(Trifluoromethyl)azetidin-1-yl)phenyl)azetidine-1-carbonyl)hexahydro-2H-pyrido[4,3-b][1,4]oxazin-3(4H)-one], half-maximal inhibition (IC50) required 2 nM. Compared with the last compound, the IC50 is about 22-fold lower. In the case of `NC(=O)c1ccccc1-c1ccc(C2CN(C(=O)N3CC[C@@H]4OCC(=O)N[C@@H]4C3)C2)cc1` [Example 130, 2-[4-[1-[(4aR,8aS)-3-Oxo-4,4a,5,7,8,8a-hexahydropyrido[4,3-b][1,4]oxazine-6-carbonyl]azetidin-3-yl]phenyl]benzamide] it was 4 nM; in that of `O=C1CO[C@H]2CCN(C(=O)N3CC(c4ccc(-c5ccccc5)c(Cl)c4)C3)C[C@H]2N1` [Example 131, (4aR,8aS)-6-(3-(2-Chloro-[1,1′-biphenyl]-4-yl)azetidine-1-carbonyl)hexahydro-2H-pyrido[4,3-b][1,4]oxazin-3(4H)-one], 0.4 nM; in that of `O=C1CO[C@H]2CCN(C(=O)N3CC(c4ccc(Br)c(Cl)c4)C3)C[C@H]2N1` [Example 132, (4aR,8aS)-6-(3-(4-Bromo-3-chlorophenyl)azetidine-1-carbonyl)hexahydro-2H-pyrido[4,3-b][1,4]oxazin-3(4H)-one], 10 nM.

The record behind these values is US20230117324A1, “OXAZINE MONOACYLGLYCEROL LIPASE (MAGL) INHIBITORS” (Hoffmann-La Roche Inc., priority 2018, published 2023).
